Data reported in patent US20030114449A1, “SACCHARIN DERIVATIVES AS ORALLY ACTIVE ELASTASE INHIBITORS” (priority 1999, published 2003).

Biological target: T1, human leukocyte elastase enzyme (Homo sapiens, UniProt P08246)
T1 sequence (P08246 30-267): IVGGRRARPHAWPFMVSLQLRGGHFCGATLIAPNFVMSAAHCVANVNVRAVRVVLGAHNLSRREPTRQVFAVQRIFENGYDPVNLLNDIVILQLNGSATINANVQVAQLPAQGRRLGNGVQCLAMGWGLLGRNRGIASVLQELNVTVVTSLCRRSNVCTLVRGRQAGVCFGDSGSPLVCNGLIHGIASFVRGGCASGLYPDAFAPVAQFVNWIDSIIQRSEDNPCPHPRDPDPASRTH
Assay: Inhibition of acute lung damaging effect caused by human leukocyte elastase enzyme, determined on mice (BAL haemoglobin)
Format: in vivo, mouse
Conditions: for inhibition %: male NMRI mice, p.o. dose 10 mg/bw kg, 60 minutes before intratracheal human leukocyte elastase, haemorrhagic response (BAL haemoglobin, 540 nm) 3 hours later; for ED50: mouse, po, mice, per os, elastase-induced lung haemorrhage
Description: Inhibition of Acut Lung Damaging Effect Caused by Human Leukocyte Elastase Enzyme, Determined on Mice.
Description of the method:
Male NMRI mice approximately 6-8 week old of age, weighing between 22-26 grams were dosed per os with the 0.1% (w/v) solution in carboxymethyl cellulose of the investigated compounds of the general formula (I) or of the known comparatory compound, respectively. 60 minutes later the mice were given intratracheally 12.5 international unit of human leukocyte elastase enzyme dissolved in 25.0 μL sterile physiological sodium chloride solution.
3 hours later the animals were euthanized with an overdose of urethane and into the lung 1 ml of physiological salt solution was introduced, for washing.
The trachea was exposed at wound by opening suture clips and a small incision made for insertion of a polyethylene cannula secured in place with surgical thread. An 18 gauge×1½ inch needle, attached to an 1.00 mL syringe was inserted into the cannula, and 0.5 mL of air was withdrawn from the airways. One milliliter was then instilled into the airways. After it the chest was briefly and gently massaged. The syringe was removed from the cannula and the bronchoalveolar lavage (BAL) fluid allowed to drain into a 10.0 mL graduate to determine the total volume of lavage fluid retrievable from lungs while the animal was in a supine position. The instillation procedure mentioned above was repeated three times. Triton X100 was then added to the collected bronchoalveolar lavage fluid (final concentration, 0.2% v/v) to ensure cell disruption and the haemoglobin content was determined spectrophotometrically at 540 nm.
Effectiveness of the elastase enzyme inhibitory compound was determined on the basis of the haemorrhagic responses, according to the following formula:
% inhibition=[(VE−DE)/(VE−VS)]×100,
VE=mean absorbance of BAL fluids from the group pretreated orally only with vehicle but intratracheally with elastase;
DE=absorbance of each BAL fluid from animals pretreated orally with potential inhibitor compound, intratracheally with elastase;
VS=mean absorbance of BAL fluids from group pretreated orally with vehicle and intratracheally with sterile physiological salt solution.
For comparative compound the structurally most related known compound described in patent application EP-0626378A1 example 9E was used. Its synthesis is described above in the reference example.

**Q.** Which results are given for `COc1cc(C(C)C)c2c(c1)S(=O)(=O)N(COc1cc(=O)n3cccc(OCCN4CCCC4)c3n1)C2=O` [EP-626378, Example 9E, 2-(9-(2-pyrrolidino-ethoxy)-4-oxo-4H-pyrido[1,2-a]pyrimidin-2-yl-oxymethyl)-4-isopropyl-6-methoxy-1,2-benzisothiazol-3(2H)one-1,1-dioxide, reference compound]?
**A.** inhibition %: 15%; ED50: 23 mg/kg

**Q.** With `COc1cc(C(C)C)c2c(c1)S(=O)(=O)N(COc1cc(=O)n3cccc(OCCN4CCCCC4)c3n1)C2=O` [Example 3, 2(-9-(2-piperidino-ethoxy)-4-oxo-4H-pyrido[1,2-a]pyrimidin-2-yl-oxymethyl)-4-isopropyl-6-methoxy-1,2-benzisothiazol-3(2H)-one-1,1-dioxide] as the compound, how does the inhibition % read?
**A.** 80%

**Q.** And the ED50?
**A.** 2.6 mg/kg

**Q.** `COc1cc(C(C)C)c2c(c1)S(=O)(=O)N(COc1cc(=O)n3cccc(OCCN4CCCCC4)c3n1)C2=O.O=C(O)c1ccccc1` [Example 7, 2-(9-(2-piperidino-ethoxy)-4-oxo-4H-pyrido[1,2-a]pyrimidin-2-yl-oxymethyl)-4-isopropyl-6-methoxy-1,2-benzisothiazol-3(2H)-one-1,1-dioxide benzoate salt] was tested. Which inhibition % did it give?
**A.** 56%

**Q.** `COc1cc(C(C)C)c2c(c1)S(=O)(=O)N(COc1cc(=O)n3cccc(OCCN4CCCCC4)c3n1)C2=O.O=C(O)CC(O)(CC(=O)O)C(=O)O` [Example 8, 2-(9-(2-piperidino-ethoxy)-4-oxo-4H-pyrido[1,2-a]pyrimidin-2-yl-oxymethyl)-4-isopropyl-6-methoxy-1,2-benzisothiazol-3(2H)-one-1,1-dioxide monocitrate salt] was tested. Which inhibition % did it give?
**A.** 70%
